Experimental data from US7507730B2, “Substituted pyrazolo[1,5-a]pyrimidines as potassium channel activators” (Bristol-Myers Squibb Company, priority 2005, dated 2009).

Target: Kv1.5 (Homo sapiens, UniProt P22460)
Assay: Kv1.5 inhibition assay (IKur inhibitor assay per cited references)
Format: cell-based
Conditions: for Kv1.5% inhibition / inhibition at 0.3 µM: at 0.3 μM; for IC50: read-out: Kv1.5 IC50
Text: Assays to determine the degree of activity of a compound as an IKur inhibitor are well known in the art and are described in references such as J. Gen. Physiol. Apr.; 101 (4):513-43, and Br. J. Pharmacol. 1995 May; 115(2):267-74.

Chain of Kv1.5 (P22460 whole entry): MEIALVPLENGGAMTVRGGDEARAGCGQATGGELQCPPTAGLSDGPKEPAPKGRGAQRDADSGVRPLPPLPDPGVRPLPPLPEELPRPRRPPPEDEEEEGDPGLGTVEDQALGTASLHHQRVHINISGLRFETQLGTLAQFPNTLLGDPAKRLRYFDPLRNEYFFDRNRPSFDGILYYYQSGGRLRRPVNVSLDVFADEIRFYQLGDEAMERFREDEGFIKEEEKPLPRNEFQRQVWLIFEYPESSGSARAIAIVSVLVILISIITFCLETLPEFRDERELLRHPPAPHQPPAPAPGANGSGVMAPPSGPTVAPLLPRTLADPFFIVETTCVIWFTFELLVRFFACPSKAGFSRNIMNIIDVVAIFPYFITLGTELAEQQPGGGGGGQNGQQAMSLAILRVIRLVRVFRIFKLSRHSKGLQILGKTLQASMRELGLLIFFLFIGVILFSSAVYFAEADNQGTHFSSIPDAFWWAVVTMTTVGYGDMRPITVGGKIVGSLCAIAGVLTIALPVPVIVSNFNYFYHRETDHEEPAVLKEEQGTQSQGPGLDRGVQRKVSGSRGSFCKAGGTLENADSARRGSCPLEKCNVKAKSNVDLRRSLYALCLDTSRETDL

Kv1.5% inhibition	inhibition at 0.3 µM	Structure (SMILES)	further results
37.7%		CC1=C(S(=O)(=O)NC(C)(C)C)C(c2ccc(Cl)c(Cl)c2)n2nc(C(F)(F)F)cc2N1 (single isomer, unassigned) [Example 58 Isomer 2, N-tert-Butyl-7-(3,4-dichlorophenyl)-5-methyl-2-(trifluoromethyl)-4,7-dihydropyrazolo[1,5-a]pyrimidine-6-sulfonamide]	
51%		CC1=C(C(=O)N(C)S(=O)(=O)c2ccccc2)C(c2ccc(Cl)c(Cl)c2)n2nc(C(F)(F)F)cc2N1 (single isomer, unassigned) [Example 90 Isomer 2, 7-(3,4-Dichlorophenyl)-N,5-dimethyl-N-(phenylsulfonyl)-2-(trifluoromethyl)-4,7-dihydropyrazolo[1,5-a]pyrimidine-6-carboxamide]	
	15%	COc1ccc(S(=O)(=O)C2=C(CO)Nc3cc(C(F)(F)F)nn3C2c2ccc(Cl)c(Cl)c2)cc1 (racemic) [Example 48, (7-(3,4-Dichlorophenyl)-6-(4-methoxyphenylsulfonyl)-2-(trifluoromethyl)-4,7-dihydropyrazolo[1,5-a]pyrimidin-5-yl)methanol]	
	15.4%	CC1=C(S(=O)(=O)C(C)C)C(c2ccc(Cl)c(Cl)c2)n2nc(C)cc2N1 (racemic) [Example 13, 7-(3,4-Dichlorophenyl)-6-(isopropylsulfonyl)-2,5-dimethyl-4,7-dihydropyrazolo[1,5-a]pyrimidine]	

Second part, the compound before the results:

Structure (SMILES)	Kv1.5% inhibition	inhibition at 0.3 µM	further results
CC1=C(S(=O)(=O)c2ccc(F)cc2)C(c2ccc(Cl)c(Cl)c2)n2nc(C)cc2N1 (single isomer, unassigned) [Example 1 Isomer 1, 7-(3,4-Dichlorophenyl)-6-(4-fluorophenylsulfonyl)-2,5-dimethyl-4,7-dihydropyrazolo[1,5-a]pyrimidine]	98%		
CC1=C(S(=O)(=O)NC2CCCCC2)C(c2ccc(Cl)cc2)n2nc(C(F)(F)F)cc2N1 (racemic) [Example 52, 7-(4-Chlorophenyl)-N-cyclohexyl-5-methyl-2-(trifluoromethyl)-4,7-dihydropyrazolo[1,5-a]pyrimidine-6-sulfonamide]		49.6%	
COc1ccc(S(=O)(=O)C2=C(C)Nc3cc(C)nn3C2c2cccc(Cl)c2)cc1 (single isomer, unassigned) [Example 17 Isomer 2, 7-(3-Chlorophenyl)-6-(4-methoxyphenylsulfonyl)-2,5-dimethyl-4,7-dihydropyrazolo[1,5-a]pyrimidine]		18.1%	
CC1=C(S(=O)(=O)c2ccc(Cl)cc2)C(c2cncnc2)n2nc(C(F)(F)F)cc2N1 (single isomer, unassigned) [Example 50 Isomer 2, 6-(4-Chlorophenylsulfonyl)-5-methyl-7-(pyrimidin-5-yl)-2-(trifluoromethyl)-4,7-dihydropyrazolo[1,5-a]pyrimidine]	14.7%		
CCCCS(=O)(=O)N(C)C(=O)C1=C(C)Nc2cc(C(F)(F)F)nn2C1c1ccc(Cl)c(Cl)c1 (racemic) [Example 86, N-(Butylsulfonyl)-7-(3,4-dichlorophenyl)-N,5-dimethyl-2-(trifluoromethyl)-4,7-dihydropyrazolo[1,5-a]pyrimidine-6-carboxamide]			IC50: 0.242 µM
CC1=C(S(=O)(=O)C2CCCCC2)C(c2ccc(Cl)cc2)n2nc(C(F)(F)F)cc2N1 (single isomer, unassigned) [Example 29 Isomer 1, 7-(4-Chlorophenyl)-6-(cyclohexylsulfonyl)-5-methyl-2-(trifluoromethyl)-4,7-dihydropyrazolo[1,5-a]pyrimidine]			IC50: 0.204 µM
CC1=C(S(=O)(=O)c2ccc(F)cc2)C(c2ccc(Cl)cc2)n2nc(C(F)(F)F)cc2N1 (single isomer, unassigned) [Example 27 Isomer 2, 7-(4-Chlorophenyl)-6-(4-fluorophenylsulfonyl)-5-methyl-2-(trifluoromethyl)-4,7-dihydropyrazolo[1,5-a]pyrimidine]			IC50: 0.092 µM
